According to patent US20220119367A1, “HETEROCYCLIC COMPOUNDS AS ADENOSINE ANTAGONISTS” (Nuvation Bio Inc., priority 2019, published 2022):

Legend:
[1] = target: T1, HEK-293 cells expressing human recombinant A1 receptor (Homo sapiens, UniProt P30542); assay: cAMP assay (Assay 2), A1 receptor; assay type: cell-based; settings: HEK-293 cells expressing A1 receptor
T1 construct: expressed in transfected cells; host or cells: HEK-293
T1 sequence (P30542 1-326): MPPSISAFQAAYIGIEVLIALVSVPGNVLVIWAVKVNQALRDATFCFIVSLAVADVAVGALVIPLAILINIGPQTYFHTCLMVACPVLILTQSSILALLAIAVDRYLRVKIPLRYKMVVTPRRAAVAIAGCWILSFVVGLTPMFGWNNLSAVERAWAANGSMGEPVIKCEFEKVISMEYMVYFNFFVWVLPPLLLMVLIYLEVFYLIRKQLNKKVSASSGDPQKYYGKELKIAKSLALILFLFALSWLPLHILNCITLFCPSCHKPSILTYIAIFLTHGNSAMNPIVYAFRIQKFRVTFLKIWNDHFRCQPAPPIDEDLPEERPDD
Procedure: (§1) The functional activity of compounds was tested using Assay 2 below, to detect the presence of cAMP. Assay 1 is an alternative assay for this purpose. Activation of G-protein coupled receptors (such as A2A) results in activation of adenylyl cyclase which converts ATP into cAMP which is used as a downstream signaling molecule. Molecules which act as GPCR (or specifically A2A receptor) antagonists cause a decrease in intracellular cAMP concentration.
(§2) Assay 2 (Table B2): This assay used HEK-293 cells expressing human recombinant adenosine A2A receptor (or, alternatively, A1 receptor) that were grown prior to the test in media without antibiotic. 100 nL of test articles at 100× of final concentration were transferred to assay plate by Echo. Cells were washed twice with 5 mL of PBS and 10 μL of cells were mixed with 5 mL PBS. After aspirating the PBS and adding 1.5 mL versine, cells were incubated at 37° C. for 2-5 min. After centrifugation, 4 mL of medium was added and adjusted cell density to 5,000 cells/well with Stimulation Buffer. 10 μL of cells were aliquoted to the assay plate, centrifuged at 1000 rpm for 1 minute, and incubated for 60 minutes at room temperature. 5 μL 4× Eu-cAMP tracer solution and 5 μL 4× Ulight™-anti-cAMP solution were added to assay plate, followed by centrifugation and 60-minute incubation at room temperature. Plates were read on EnVision.

[2] = target: T2, adenosine A1 (human) membrane (Homo sapiens, UniProt P30542); assay: A1 adenosine receptor radioligand binding assay ([3H] DPCPX); settings: compound at 200 nM, radioligand [3H] DPCPX 1 nM
T2 construct: purchased PerkinElmer ES-010-M400UA
T2 sequence (P30542 1-326): T1 sequence (P30542 1-326)
Procedure: A second A1 adenosine receptor radioligand binding assay protocol was used. The protocol used adenosine A1 (human) membrane (PerkinElmer ES-010-M400UA) at a concentration of 2.5 μg/well/100 μl and the radioligand [3H] DPCPX (Cat No. PerkinElmer-NET974250UC) at a final concentration of 1 nM. Testing compounds were tested at a final concentration of 200 nM. CGS-15943, the reference compound, was tested in an 8-point 4-fold serial dilution, starting at a top concentration of 1 μM. 1 μl of compounds/high control/low control was transferred to the assay plate according to a plate map, followed by 100 μl of membrane stocks and 100 μl of radioligand, in assay buffer (25 mM HEPES, 5 mM MgCl2, 1 mM CaCl2, 100 mM NaCl, pH 7.4). The plate was sealed and incubated at RT for 1 hour. Unifilter-96 GF/C filter plates (Perkin Elmer Cat #6005174) were soaked with 50 μl of 0.3% PEI per well for at least 0.5 hour at room temperature. When the binding assays were completed, the reaction mixtures were filtered through GF/C plates using Perkin Elmer Filtermate Harvester, and each plate washed 4 times with cold wash buffer (25 mM HEPES, 5 mM MgCl2, 1 mM CaCl2, 100 mM NaCl, pH 7.4). The filter plates were dried for 1 hour at 50 degrees. After drying, the bottom of the filter plate wells was sealed, 50 μl of Perkin Elmer Microscint 20 cocktail was added, and the top of the filter plate was sealed. ^3H trapped on the filter was counted using Perkin Elmer MicroBeta2 Reader. The data were analyzed with GraphPad Prism 5 to obtain binding IC50 values for the reference compound. The “Inhibition [% Control]” was calculated using the equation: % Inh =(1−Background subtracted Assay value/Background subtracted HC value)*100, where HC is high control.

[3] = target: T3, HEK-293 cells expressing human recombinant adenosine A2A receptor (Homo sapiens, UniProt P29274); assay: cAMP assay (Assay 2), A2A receptor; assay type: cell-based; settings: HEK-293 cells expressing human A2A receptor
T3 construct: expressed in transfected cells; host or cells: HEK-293
Procedure: as §1, §2

[4] = target: T4, adenosine A2a (human) membrane (Homo sapiens, UniProt P29274); assay: A2A adenosine receptor radioligand binding assay ([3H] CGS-21680); settings: radioligand [3H] CGS-21680 6 nM
T4 construct: purchased PerkinElmer RBHA2AM400UA
Procedure: A second A2A adenosine receptor radioligand binding assay protocol was used. The protocol used adenosine A2a (human) membrane (PerkinElmer RBHA2AM400UA) at a concentration of 5 μg/well/100 μl and the radioligand [3H] CGS-21680 (Cat No. PerkinElmer-NET1021250UC) at a final concentration of 6 nM. Testing compounds were diluted with DMSO to make 8-point 4-fold serial dilution, starting at 0.2 mM. CGS-15943 was the reference compound. 1 μl of compounds/high control/low control was transferred to the assay plate according to a plate map, followed by 100 μl of membrane stocks and 100 μl of radioligand, in assay buffer (50 mM Tris-HCl, 10 mM MgCl2, 1 mM EDTA, pH 7.4). The plate was sealed and incubated at RT for 2 hours. Unifilter-96 GF/C filter plates (Perkin Elmer Cat #6005174) were soaked with 50 μl of 0.3% PEI per well for at least 0.5 hour at room temperature. When the binding assays were completed, the reaction mixtures were filtered through GF/C plates using Perkin Elmer Filtermate Harvester, and each plate washed 4 times with cold wash buffer (50 mM Tris-HCl, 154 mM NaCl, pH 7.4). The filter plates were dried for 1 hour at 50 degrees. After drying, the bottom of the filter plate wells was sealed, 50 μl of Perkin Elmer Microscint 20 cocktail was added, and the top of the filter plate was sealed. ^3H trapped on the filter was counted using Perkin Elmer MicroBeta2 Reader. The data were analyzed with GraphPad Prism 5 to obtain binding IC50 values. The “Inhibition [% Control]” was calculated using the equation: % Inh=(1−Background subtracted Assay value/Background subtracted HC value)*100, where HC is high control.

T4 sequence (P29274 whole entry): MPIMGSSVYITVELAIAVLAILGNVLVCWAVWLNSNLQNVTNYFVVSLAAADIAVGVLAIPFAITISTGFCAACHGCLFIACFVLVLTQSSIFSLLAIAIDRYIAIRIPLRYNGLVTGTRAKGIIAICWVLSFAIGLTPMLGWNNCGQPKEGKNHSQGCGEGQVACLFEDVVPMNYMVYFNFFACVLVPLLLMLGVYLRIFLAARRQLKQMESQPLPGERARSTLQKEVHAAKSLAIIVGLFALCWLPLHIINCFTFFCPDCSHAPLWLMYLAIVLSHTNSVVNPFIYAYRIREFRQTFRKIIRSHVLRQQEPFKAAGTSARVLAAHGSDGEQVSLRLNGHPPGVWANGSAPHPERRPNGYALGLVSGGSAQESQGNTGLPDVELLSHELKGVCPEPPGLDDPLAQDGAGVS
T3 sequence (P29274 whole entry): as above

| Structure (SMILES) | IC50 [1] [nM] | inhibition at 0.2 µM [2] [%] | IC50 [3] [nM] | IC50 [4] [nM] |
| --- | --- | --- | --- | --- |
| CC(C)(O)c1cccc(COc2nc(-c3cc(Cl)c4ncccc4c3)c(-c3ccc(F)cc3)nc2N)n1 [Compound No. 58, 2-(6-(((3-amino-6-(8-chloroquinolin-6-yl)-5-(4-fluorophenyl)pyrazin-2-yl)oxy)methyl)pyridin-2-yl)propan-2-ol] | 92.7 | 85 | 18.4 | – |
| Cc1ccn(-c2nc(N)c(OCc3cccc(C(C)(C)O)n3)nc2-c2cc(Cl)c3ncccc3c2)n1 [compound 1, 2-(6-(((3-amino-6-(8-chloroquinolin-6-yl)-5-(3-methyl-1H-pyrazol-1-yl)pyrazin-2-yl)oxy)methyl)pyridin-2-yl)propan-2-ol] | – | – | 164 | – |
| CC(C)(O)c1cccc(COc2nc(-c3ccc4ncccc4c3)c(-c3ccccc3)nc2N)n1 [compound 2, 2-(6-(((3-amino-5-phenyl-6-(quinolin-6-yl)pyrazin-2-yl)oxy)methyl)pyridin-2-yl)propan-2-ol] | 32.3 | – | 15.1 | – |
| CC(C)(O)c1cccc(Cn2cc(-c3nc(-c4ccc5ncccc5c4)c(-c4ccccc4)nc3N)nn2)n1 [compound 102, 2-(6-((4-(3-amino-5-phenyl-6-(quinolin-6-yl)pyrazin-2-yl)-1H-1,2,3-triazol-1-yl)methyl)pyridin-2-yl)propan-2-ol] | 8.7 | 97 | 19.6 | – |
| C[C@H](c1ccccn1)N(C)C(=O)c1nc(-c2ccc3ncccc3c2)c(-c2ccccc2)nc1N [compound 119, (R)-3-amino-N-methyl-5-phenyl-N-(1-(pyridin-2-yl)ethyl)-6-(quinolin-6-yl)pyrazine-2-carboxamide] | – | 49 | – | 105 |
| C[C@@H](c1ccccn1)N(C)C(=O)c1nc(-c2ccc3ncccc3c2)c(-c2ccccc2)nc1N [compound 120, (S)-3-amino-N-methyl-5-phenyl-N-(1-(pyridin-2-yl)ethyl)-6-(quinolin-6-yl)pyrazine-2-carboxamide] | – | 90 | – | 65 |
| CC(NC(=O)c1nc(-c2ccc3ncccc3c2)c(-c2ccccc2)nc1N)c1ccccc1 (stereo not drawn) [compound 121, 3-amino-5-phenyl-N-(1-phenylethyl)-6-(quinolin-6-yl)pyrazine-2-carboxamide] | – | 68 | – | 2.1 |
